From patent publication US20240325353A1, “COMPOUND FOR TREATMENT OF COGNITIVE DISORDERS” (Syndesi Therapeutics SA, priority 2021, published 2024)

Test: anti-convulsant activity in vivo

O=C1C[C@H](c2cc(F)c(F)c(F)c2)CN1Cn1ncnc1Cl [compound of example 1, (4R)-1-[(5-chloro-1H-1,2,4-triazol-1-yl)methyl]-4-(3,4,5-trifluorophenyl)pyrrolidin-2-one]
anti-convulsant activity: without anti-convulsant activity | effect on the anti-convulsant effect of levetiracetam: competitively inhibits
